The values below come from patent US8889378B2, “Cytochrome C synthesis inhibitors” (priority 2006, dated 2014).

Data set [1] has as its system system I cytochrome c biogenesis (heme acquisition). Put plainly: Exogenous heme addition, E. coli ΔccmΔhemA (RK105) with system I, pRGK332 and pHPEX2. Type of data set: cell-based. Here is the method: (§1) Cultures of RK105 (E. coli ΔccmΔhemA) harboring pRGK333 (system I), pRGK332 (cytochrome c4:6×His), and pHPEX2 (Varnado and Goodwin, 2004) or pRGK348 (system II) and pRGK332 were grown in LB overnight in the presence of 300 μM aminolevulinic acid (ALA). 100 mL cultures were started from the overnight culture with a 1% inoculum in LB devoid of ALA for two and one-half hours. After two and one-half hours, the 100 mL cultures had exhausted their cellular supply of ALA and required exogenous heme (or ALA) for further growth. The ALA exhausted cultures were divided into 5 mL aliquots to which IPTG (1 mM, to induce the synthesis of the system I proteins) and heme (0 μM to 100 μM) (Sigma) were added. It was discovered that heme at greater than 60 μM would precipitate over time with no IPTG (1 mM) present and at greater than 100 μM in the presence of IPTG. After one hour, arabinose (0.2% to induce the synthesis of cytochrome c4:6×His) was added and cultures were grown for an additional three hours. Cells were harvested and protein was extracted using B-PER as previously described (Feissner et al., 2006). […]
Heme stains were performed as described (Feissner et al., 2003) using SuperSignal Femto chemiluminescent substrate (Pierce). Heme stain quantitation used LOLITA II (Low Light Test Array; raytestUSA; Wilmington, N.C.) for standardization of light intensity detection on an LAS1000plus Luminescent Image Analyzer CCD camera system. […] Chemiluminescence from heme stains and Western blots were detected using an LAS-1000plus Luminescent Image Analyzer CCD camera system (Fujifilm). Protein concentrations were determined using the BCA assay (Pierce) using BSA as a standard. […] Protein concentrations were determined with the BCA assay kit (Pierce) using BSA as a standard.
To directly examine the difference in heme acquisition between systems I and II, varying concentrations of exogenous heme were supplied to E. coli ΔccmΔhemA, expressing ChuA with pRGK332 and either system plasmid. […] The cytochrome c4 acts as a trap, allowing quantitation of the levels of heme that have fluxed through each system. […]

Data set [2] concerns system I cytochrome c biogenesis. Put plainly: Heme competition with ZnPPIX inhibition, E. coli Δccm with system I, ChuA and cytochrome c4:Pho. Type of data set: cell-based. The following applies: grown with 12.5 μM ZnPPIX. As to the method: FIG. 22. Western blot (A: lanes 1-7) and heme stain (B: lanes 1-5) indicating ZnPPIX competes with heme. Overnight cultures of E. coli Dccm containing pRGK333, pRGK331, and pHPEX2 were diluted into fresh LB broth containing […] ZnPPIX and grown to mid-log phase. IPTG (1 mM) was added and incubation continued for 30 minutes. Heme was added and incubation continued for 30 minutes. Arabinose (0.2%) was added for three hours to induce synthesis of cytochrome c4:PhoA and soluble B-PER protein extracts were prepared. The concentrations ([…]) of ZnPPIX and heme are given above each lane. Above the panel pSysI is pRGK333, pc4:PhoA is cytochrome c4:PhoA, and Dccm is E. coli Dcam.
ZnPPIX is inhibiting downstream of holoCcmE since this “heme reservoir” is no longer available for cytochrome c4 biogenesis. The WWD containing protein CcmF may the target for ZnPPIX (see FIG. 11). If the target for ZnPPIX is a heme binding protein (site), then exogenous heme should compete with this inhibition (i.e. ZnPPIX binding). […] The same heme stained polypeptides were confirmed to be full length cytochrome c4:Pho fusion proteins by Western blot (FIG. 22A, lane 1-5). ZnPPIX is a specific inhibitor of c-type cytochrome biogenesis by either system I or system II, but heme is able to compete with ZnPPIX inhibition.

The subject of data set [3] is system II (CcsBA) cytochrome c biogenesis (heme acquisition). Put plainly: Exogenous heme addition, E. coli ΔccmΔhemA (RK105) with system II (CcsBA), chuA and pRGK332. Type of data set: cell-based. The following applies: averaged over 3 trials, Hill curve fit, read-out: heme concentration at which holocytochrome c4:6×His levels reached 50% of maximum synthesis. Here is the method: Cultures of RK105 (E. coli ΔccmΔhemA) harboring pRGK333 (system I), pRGK332 (cytochrome c4:6×His), and pHPEX2 (Varnado and Goodwin, 2004) or pRGK348 (system II) and pRGK332 were grown in LB overnight in the presence of 300 μM aminolevulinic acid (ALA). 100 mL cultures were started from the overnight culture with a 1% inoculum in LB devoid of ALA for two and one-half hours. After two and one-half hours, the 100 mL cultures had exhausted their cellular supply of ALA and required exogenous heme (or ALA) for further growth. The ALA exhausted cultures were divided into 5 mL aliquots to which IPTG (1 mM, to induce the synthesis of the system I proteins) and heme (0 μM to 100 μM) (Sigma) were added. […]
Heme stains were performed as described (Feissner et al., 2003) using SuperSignal Femto chemiluminescent substrate (Pierce). Heme stain quantitation used LOLITA II (Low Light Test Array; raytestUSA; Wilmington, N.C.) for standardization of light intensity detection on an LAS1000plus Luminescent Image Analyzer CCD camera system. […] Chemiluminescence from heme stains and Western blots were detected using an LAS-1000plus Luminescent Image Analyzer CCD camera system (Fujifilm). Protein concentrations were determined using the BCA assay (Pierce) using BSA as a standard. […] Protein concentrations were determined with the BCA assay kit (Pierce) using BSA as a standard. […]

A further data set has as its system E. coli ΔccmΔhemA. Put plainly: Growth of E. coli ΔccmΔhemA on exogenous heme, without or with the heme porin ChuA (pHPEX2). Type of data set: cell-based. Here is the method:
FIG. 13. Growth of E. coli DccmDhemA with exogenous heme. Overnight cultures of E. coli DccmDhemA or containing pHPEX2 and (A) pRGK333 or (B) pRGK334 were diluted into LB broth without ALA or heme. The cultures were incubated aerobically at 37° C. for two and one-half hours to exhaust the cultures for ALA. Heme was added at the indicated concentrations when noted and growth (A600) was measured. For reference, the growth of E. coli Dccm (wild-type) containing either pRGK333 or pRGK334 is shown (t).
To determine if exogenous heme rather than ALA could support growth, an overnight culture of E. coli ΔccmΔhemA, supplemented with 300 μM ALA, was used to inoculate [1% (v/v)] fresh LB medium containing different concentrations of heme (0 μM to 100 μM).
Since the outer membranes of some strains of E. coli are poorly permeable to heme, the heme porin from pHPEX2 (Varnado and Goodwin, 2004) was expressed. The tetracycline-resistant pHPEX2 expresses the gene for the heme receptor (chuA) from E. coli O157:H7 using the IPTG-inducible lacUV5 promoter. ChuA is a member of a class of relatively nonspecific enterobacterial heme receptors that are TonB-dependent and facilitate heme acquisition from the environment and recognize free heme and heme bound to a variety of proteins (see FIG. 11). Growth of E. coli ΔccmΔhemA containing either pRGK333 or pRGK334 and pHPEX2 was dependant on exogenous heme (see FIG. 13). […] The pHPEX2 also facilitates the heme-dependent production of the B. pertussis c4:6×His when the plasmids with system I or system II are present (see below).

A short description of data set [4]: Heme precipitation in culture medium. Type of data set: physicochemical. Here is the method: as §1, with “2006). Cytochrome c4:6×His was purified from 200 μg of total protein over nickel affinity resin to eliminate free heme. 20 μL of each sample were subjected to SDS-PAGE, transferred to nitrocellulose, and heme stained as described above.” for “2006).”

With iron protoporphyrin IX [heme], in data set [1] (system I), the “heme concentration at which maximum synthesis of holocytochrome c4:6×His occurs” value is “less than 10 μM”. Also, the “apparent affinity for heme, system I versus system II” value in data set [1] (system I compared with system II) is “at least twenty fold higher”. For the same substance, the EC50 was determined as 1900 nM in data set [1] (system I, averaged over 4 trials, Hill curve fit, read-out: heme concentration restoring holocytochrome c4:6×His levels to 50% of maximum) and 54.4 µM in data set [3]. In data set [2], the “holocytochrome c4:Pho with increasing concentrations of additional heme” value is on record as “corresponding increase in holocytochrome c4:Pho”. The “growth on exogenous heme” value in the data set with E. coli ΔccmΔhemA (chuA (pHPEX2) expressed, pRGK333 or pRGK334) was “growth to near wild-type levels”; in the data set with E. coli ΔccmΔhemA (heme 0 μM to 100 μM, no heme porin) it was “not detected until four to five days”. For the same substance, the “holocytochrome c4:6×His production on exogenous heme” value in the data set on E. coli ΔccmΔhemA (no heme porin, system I or system II plasmid and c4:6×His reporter) is reported as “no holocytochrome c4:6×His production was detected”. Moreover, the “heme concentration above which heme would precipitate over time” value is listed as “greater than 100 μM” in data set [4] (in the presence of IPTG) and “greater than 60 μM” in data set [4] (no IPTG (1 mM) present).
